Reference: publication PMC7672472 (2020)
Where two headings read alike, the source gives them in different places.

Tests used:
[1] = test system: ATP-28 (DNA, aptamer) CTGGGGGAGTATTGCGGAGGAAGGTGCG; test: ITC; conditions: 10 mM Mg2+; 10 mM Tris-HCl pH 7.4, 23 °C; sequential model, site 1 of 2
[2] = test system: ATP-33 (DNA, aptamer) CGCACCTGGGGGAGTATTGCGGAGGAAGGTGCG; test: T5 Exo digestion, PAGE; conditions: 10 mM Mg2+; 10 mM Tris-HCl pH 7.4, 25 °C; 250 μM ligand
[3] = test system: Dopamine Aptamer (DNA, aptamer) CGACGCCAGTTTGAAGGTTCGTTCGCAGGTGTGGAGTGACGTCG; test: T5 Exo/Exo I digestion, SYBR Gold fluorescence; conditions: 140 mM Na+, 4 mM K+, 2 mM Mg2+; 10 mM phosphate pH 7.4, 25 °C; 200 μM ligand
[4] = test system: MA-46 (MA) (DNA, aptamer) CTTACGACTCAGGCATTTTGCCGGGTAACGAAGTTACTGTCGTAAG; test: ITC; conditions: 20 mM Na+, 5 mM Mg2+
[5] = test system: MMC1 (DNA, aptamer) CTTACGACCAGGGTTGGTTTCATCGGTGGTGTAATATGGTCGTAAG; test: ITC; conditions: 20 mM Na+, 0.5 mM Mg2+
[6] = test system: SCA2.1 (DNA, aptamer) CTTACGACCTTAAGTGGGGTTCGGGTGGAGTTTATGGGGTCGTAAG; conditions: 20 mM Na+, 0.5 mM Mg2+; 10 mM Tris-HCl pH 7.4, 25 °C; 50 μM ligand
[7] = test system: MA-Mutant (DNA, aptamer) CTTACGACGCAGGCATTTTGCCGGGTAACGAAGTTACTGTCGTAAG; test: ITC; conditions: 20 mM Na+, 5 mM Mg2+
[8] = test system: MA-41 (DNA, aptamer) GACTCAGGCATTTTGCCGGGTAACGAAGTTACTGTCGTAAG; test: ITC; conditions: 20 mM Na+, 5 mM Mg2+; 10 mM Tris-HCl pH 7.4, 23 °C; one-site model
[9] = test system: Dopamine Aptamer (DNA, aptamer) CGACGCCAGTTTGAAGGTTCGTTCGCAGGTGTGGAGTGACGTCG; conditions: 140 mM Na+, 4 mM K+, 2 mM Mg2+; 10 mM phosphate pH 7.4, 25 °C; 200 μM ligand
[10] = test system: SCA2.1 (DNA, aptamer) CTTACGACCTTAAGTGGGGTTCGGGTGGAGTTTATGGGGTCGTAAG; test: ITC; conditions: 20 mM Na+, 0.5 mM Mg2+; 10 mM Tris-HCl pH 7.4, 23 °C; one-site model
[11] = test system: MMC1-Mutant (DNA, aptamer) CTTACGACCAGGGTTGGTTTCACCGGTGGTGTAATATGGTCGTAAG; test: ITC; conditions: 20 mM Na+, 0.5 mM Mg2+; 10 mM Tris-HCl pH 7.4, 23 °C; 2000 μM ligand in syringe
[12] = test system: MMC1-42 (DNA, aptamer) CGACCAGGGTTGGTTTCATCGGTGGTGTAATATGGTCGTAAG; test: ITC; conditions: 20 mM Na+, 0.5 mM Mg2+; 10 mM Tris-HCl pH 7.4, 23 °C; one-site fit, half racemate concentration stated for MMC1 titrations
[13] = test system: MMC2 (DNA, aptamer) CTTACGACCAGGGTTGGTCTCATCGGTGGTGTAATATGGTCGTAAG; test: continuous-injection ITC and exonuclease assay; conditions: 20 mM Na+, 0.5 mM Mg2+
[14] = test system: MMC3 (DNA, aptamer) CTTACGGCCAGGGTTGGTCTCATCGGTGGTGTAATATGGTCGTAAG; test: continuous-injection ITC and exonuclease assay; conditions: 20 mM Na+, 0.5 mM Mg2+
[15] = test system: MMC4 (DNA, aptamer) CTTACGAAGCAGGTGGGTAGGATAGTGTGTGTGCTGTCGTCGTAAG; test: continuous-injection ITC and exonuclease assay; conditions: 20 mM Na+, 0.5 mM Mg2+
[16] = test system: MMC5 (DNA, aptamer) CTTACCGACTATATGGGCAGTATCGTCTAGTGCCTAAGGGTCGTAAG; test: continuous-injection ITC and exonuclease assay; conditions: 20 mM Na+, 0.5 mM Mg2+; 10 mM Tris-HCl pH 7.4, 23 °C; 1000 μM ligand in syringe; very weak or no binding
[17] = 10 mM Tris-HCl pH 7.4, 23 °C, 1000 μM ligand in syringe
[18] = 10 mM Tris-HCl pH 7.4, 23 °C, one-site model

Nc1ncnc2c1ncn2[C@@H]1O[C@H](COP(=O)(O)OP(=O)(O)OP(=O)(O)O)[C@@H](O)[C@H]1O
Kd1 [1]: 4.1 ± 0.2 µM
binding [2]: yes

N[C@@H](Cc1ccc(O)cc1)C(=O)O
binding [3]: no

Nc1nc2c(ncn2[C@@H]2O[C@H](COP(=O)(O)OP(=O)(O)OP(=O)(O)O)[C@@H](O)[C@H]2O)c(=O)[nH]1
binding [2]: no

CCN(CC)CC(=O)Nc1c(C)cccc1C
Kd [4, 17]: > 1000 µM

NCCc1ccc(O)c(O)c1
Kd [5, 17]: > 1000 µM
binding [3]: yes

CNC(C)C(=O)c1ccccc1 (racemic)
Kd [5]: 654 ± 61 µM

NCCc1c[nH]c2ccc(O)cc12
Kd [4, 18]: 55 ± 2 µM

CN(C)CCCN1c2ccccc2Sc2ccc(Cl)cc21
Kd [4, 18]: 0.6 ± 0.1 µM

Nc1ccn([C@@H]2O[C@H](COP(=O)(O)OP(=O)(O)OP(=O)(O)O)[C@@H](O)[C@H]2O)c(=O)n1
binding [2]: no

CNC(C)C(=O)c1ccc2c(c1)OCO2 (racemic)
Kd [5]: 275 ± 17 µM

CN[C@@H](C)Cc1ccccc1
binding [6]: no
Kd [4]: > 1000 µM

CCCC(C(=O)c1ccc2c(c1)OCO2)N1CCCC1 (racemic)
binding [6]: yes
Kd [4, 18]: 18.8 ± 1.4 µM
binding [7]: no
Kd [8]: 24.8 ± 0.7 µM

O=c1ccn([C@@H]2O[C@H](COP(=O)(O)OP(=O)(O)OP(=O)(O)O)[C@@H](O)[C@H]2O)c(=O)[nH]1
binding [2]: no

CCNC(C)C(=O)c1ccc2c(c1)OCO2 (racemic)
Kd [4, 18]: 61 ± 2 µM
Kd [5]: 254 ± 22 µM

CNC(C)Cc1ccc2c(c1)OCO2 (stereo not drawn)
binding [9]: no
Kd [4, 18]: 103 ± 4 µM
Kd [10]: 24.5 ± 0.9 µM

CNC(C)C(=O)c1ccc(C)cc1 (racemic)
Kd ([5]; 10 mM Tris-HCl pH 7.4, 23 °C, one-site fit with half the racemate concentration): 15 ± 1.3 µM
binding [11]: no
Kd [12]: 6.6 ± 0.7 µM
binding [13]: yes
binding [14]: yes
binding [15]: yes
binding [16]: no

CNC(C)C(=O)c1cccc(C)c1 (racemic)
Kd [5]: > 1000 µM

CNC(C)C(=O)c1ccc(OC)cc1 (racemic)
Kd ([5]; 10 mM Tris-HCl pH 7.4, 23 °C, 10-fold lower affinity than mephedrone, half racemate concentration): 146 ± 34 µM

CN[C@@H](C)[C@H](O)c1ccccc1
Kd [10]: 64 ± 3 µM

COC(=O)[C@H]1[C@@H](OC(=O)c2ccccc2)C[C@@H]2CC[C@H]1N2C
binding [6]: no

CNC(C)C(=O)c1ccc(F)cc1 (racemic)
Kd [5]: > 1000 µM
